Test results from patent US8455688B2, “HDAC inhibitors” (Lixte Biotechnology, Inc., priority 2007, dated 2013).
Values after ≈ are worked out from the molar mass of the structure shown. Like-named read-outs stand apart in the source and are kept apart here. Values belong to the molecule of their own block, whether it stands above or below them.

Tests used:
A. fumigatus = assay: Broth dilution antifungal susceptibility testing, A. fumigatus; type: cell-based, Aspergillus fumigatus; settings: 80% inhibition; for MIC: Aspergillus fumigatus, read-out: minimum inhibitory concentration (MIC)
Procedure: (§1) A total of 23 isolates were tested to include 3 Candida albicans, 3 Candida glabrata, 3 Cryptococcus neoformans, 3 Aspergillus fumigatus, 3 Rhizopus oryzae, 3, Fusarium solani, 3 Pseudallescheria boydii, and 2 […]. All isolates were clinical isolates submitted to the Fungus Testing Laboratory for evaluation. Antifungal susceptibility testing was accomplished according to the methods outlined in the National Committee for Clinical Laboratory Standards, M-27A2, Reference Method for Broth Dilution Antifungal Susceptibility Testing of Yeasts; Approved Standard, and M38-A “Reference Method for Broth Dilution Antifungal Susceptibility Testing of Conidium-Forming Filamentous Fungi; Approved Standard”. This includes testing in RPMI-1640 with glutamine and without bicarbonate, an inoculum size of 0.5-2.5×10^3 for yeasts or […] for moulds, and incubation at 35° C. for 24 and 48 hours. […] Drug concentrations were 0.125-64 μg/ml. A 10 mg portion of each powder was weighed out and added to 1 ml of 100% DMSO for compound 205. The resulting concentration of […] was diluted to a working concentration of 6400 μg/ml for compound 205 in 100% DMSO. All subsequent dilutions were also made using the respective diluents. Final testing concentrations ranged from 0.125-64 μg/ml. The NCCLS recommended medium RPMI-1640 (Hardy Diagnostics, Santa Monica, Calif.) was utilized as the test medium. All isolates in this study were clinical isolates received in the Fungus Testing Laboratory for standard antifungal susceptibility testing and/or identification. Isolates, which were not sent for identification, were confirmed to assure testing integrity. A total of 23 were tested to include 3 Candida albicans, 3 Candida glabrata, 3 Cryptococcus neoformans, 3 Aspergillus fumigatus, 3 Rhizopus oryzae, 3, Fusarium solani, 3 Pseudallescheria boydii, and 2 […]. Minimum inhibitory concentrations (MIC) were determined at the first 24-hour interval where growth could be determined in the drug-free control tube.

R. arrhizus = assay: Broth dilution antifungal susceptibility testing, R. arrhizus; type: cell-based, Rhizopus oryzae; settings: 80% inhibition; for MIC: Rhizopus arrhizus, read-out: minimum inhibitory concentration (MIC)
Procedure: as §1

CP Control = assay: Broth dilution antifungal susceptibility testing, CP Control; type: cell-based; settings: read-out: minimum inhibitory concentration (MIC)
Procedure: as §1

T. rubrum = assay: Broth dilution antifungal susceptibility testing, T. rubrum; type: cell-based, Trichophyton rubrum; settings: 80% inhibition; for MIC: Trichophyton rubrum, read-out: minimum inhibitory concentration (MIC)
Procedure: as §1

S. apiospermum = assay: Broth dilution antifungal susceptibility testing, S. apiospermum; type: cell-based, Pseudallescheria boydii; settings: 80% inhibition; for MIC: Scedosporium apiospermum, read-out: minimum inhibitory concentration (MIC)
Procedure: as §1

C. albicans = assay: Broth dilution antifungal susceptibility testing, C. albicans; type: cell-based, Candida albicans; settings: 50% reduction in turbidity; for MIC: Candida albicans, read-out: minimum inhibitory concentration (MIC)
Procedure: as §1

C. glabrata = assay: Broth dilution antifungal susceptibility testing, C. glabrata; type: cell-based, Candida glabrata; settings: 50% reduction in turbidity; for MIC: Nakaseomyces glabratus, read-out: minimum inhibitory concentration (MIC)
Procedure: as §1

F. solani = assay: Broth dilution antifungal susceptibility testing, F. solani; type: cell-based; settings: Fusarium solani, 80% inhibition, read-out: minimum inhibitory concentration (MIC)
Procedure: as §1

cell line U-87 = assay: Activity against the cell line U-87; type: cell-based, human; settings: potency on an equimolar basis
C. neoformans = assay: Broth dilution antifungal susceptibility testing, C. neoformans; type: cell-based; settings: Cryptococcus neoformans, 50% reduction in turbidity, read-out: minimum inhibitory concentration (MIC)
Procedure: as §1

[1] = 24 h, isolate 06-4126, 24 hours
[2] = 24 h, isolate 07-2039, 24 hours
[3] = 48 h, isolate 07-2039, 48 hours
[4] = 24 h, isolate 07-2044, 24 hours
[5] = 24 h, isolate 07-2078, 24 hours
[6] = 48 h, isolate 07-2044, 48 hours
[7] = 48 h, isolate 07-2078, 48 hours
[8] = 24 h, isolate 07-1743, 24 hours
[9] = 24 h, isolate 07-2055, 24 hours
[10] = 48 h, isolate 07-1743, 48 hours
[11] = 48 h, isolate 07-2055, 48 hours
[12] = 24 h, isolate 07-1333, 24 hours
[13] = 24 h, isolate 07-1502, 24 hours
[14] = 48 h, isolate 07-1333, 48 hours
[15] = 48 h, isolate 07-1502, 48 hours
[16] = 24 h, isolate 07-3006, 24 hours
[17] = 24 h, isolate 07-3011, 24 hours
[18] = 24 h, isolate 07-3012, 24 hours
[19] = 48 h, isolate 07-3006, 48 hours
[20] = 48 h, isolate 07-3011, 48 hours
[21] = 48 h, isolate 07-3012, 48 hours
[22] = 24 h, isolate 07-2964, 24 hours
[23] = 24 h, isolate 07-2965, 24 hours
[24] = 24 h, isolate 07-3013, 24 hours
[25] = 48 h, isolate 07-2964, 48 hours
[26] = 48 h, isolate 07-2965, 48 hours
[27] = 48 h, isolate 07-3013, 48 hours
[28] = 48 h, isolate 07-1755, 48 hours
[29] = 48 h, isolate 07-1867, 48 hours
[30] = 24 h, isolate 07-2665, 24 hours
[31] = 24 h, isolate 07-2737, 24 hours
[32] = 24 h, isolate 07-2829, 24 hours
[33] = 48 h, isolate 07-2737, 48 hours
[34] = 48 h, isolate 07-2829, 48 hours

MIC (A. fumigatus; 24 h, isolate 05-388, 24 hours): 1 µg/mL (≈ 2.92 µM) | MIC (A. fumigatus; [1]): 0.5 µg/mL (≈ 1.46 µM) | MIC (A. fumigatus; [2]): 1 µg/mL (≈ 2.92 µM) | MIC (A. fumigatus; 48 h, isolate 05-388, 48 hours): > 64 µg/mL | MIC (A. fumigatus; [3]): > 64 µg/mL | minimum inhibitory concentration (MIC) (A. fumigatus; isolate 06-4126, 24 hours): 1 µg/mL (≈ 2.92 µM) | MIC (R. arrhizus; [4]): 8 µg/mL (≈ 23.4 µM) | MIC (R. arrhizus; [5]): > 64 µg/mL | MIC (R. arrhizus; [6]): > 64 µg/mL | MIC (R. arrhizus; [7]): > 64 µg/mL | minimum inhibitory concentration (MIC) (R. arrhizus; isolate 07-2044, 24 hours): 4 µg/mL (≈ 11.7 µM) | MIC (CP Control; 24 hours): 8 µg/mL (≈ 23.4 µM) | MIC (CP Control; 48 hours): > 64 µg/mL | MIC (T. rubrum; [8]): 2 µg/mL (≈ 5.84 µM) | MIC (T. rubrum; [9]): 2 µg/mL (≈ 5.84 µM) | MIC (T. rubrum; [10]): 2 µg/mL (≈ 5.84 µM) | MIC (T. rubrum; [11]): 2 µg/mL (≈ 5.84 µM) | minimum inhibitory concentration (MIC) (T. rubrum; isolate 07-1743, 24 hours): 1 µg/mL (≈ 2.92 µM) | minimum inhibitory concentration (MIC) (T. rubrum; isolate 07-1743, 48 hours): 1 µg/mL (≈ 2.92 µM) | minimum inhibitory concentration (MIC) (T. rubrum; isolate 07-2055, 24 hours): 1 µg/mL (≈ 2.92 µM) | minimum inhibitory concentration (MIC) (T. rubrum; isolate 07-2055, 48 hours): 1 µg/mL (≈ 2.92 µM) | MIC (S. apiospermum; [12]): 1 µg/mL (≈ 2.92 µM) | MIC (S. apiospermum; [13]): 2 µg/mL (≈ 5.84 µM) | MIC (S. apiospermum; [14]): 1 µg/mL (≈ 2.92 µM) | MIC (S. apiospermum; [15]): 4 µg/mL (≈ 11.7 µM) | minimum inhibitory concentration (MIC) (S. apiospermum; isolate 07-1333, 24 hours): 2 µg/mL (≈ 5.84 µM) | minimum inhibitory concentration (MIC) (S. apiospermum; isolate 07-1333, 48 hours): 2 µg/mL (≈ 5.84 µM) | minimum inhibitory concentration (MIC) (S. apiospermum; isolate 07-1502, 48 hours): 2 µg/mL (≈ 5.84 µM) | MIC (C. albicans; [16]): 8 µg/mL (≈ 23.4 µM) | MIC (C. albicans; [17]): 4 µg/mL (≈ 11.7 µM) | MIC (C. albicans; [18]): 4 µg/mL (≈ 11.7 µM) | MIC (C. albicans; [19]): > 64 µg/mL | MIC (C. albicans; [20]): > 64 µg/mL | MIC (C. albicans; [21]): > 64 µg/mL | minimum inhibitory concentration (MIC) (C. albicans; isolate 07-3006, 24 hours): 4 µg/mL (≈ 11.7 µM) | minimum inhibitory concentration (MIC) (C. albicans; isolate 07-3011, 24 hours): 8 µg/mL (≈ 23.4 µM) | minimum inhibitory concentration (MIC) (C. albicans; isolate 07-3012, 24 hours): 8 µg/mL (≈ 23.4 µM) | MIC (C. glabrata; [22]): 2 µg/mL (≈ 5.84 µM) | MIC (C. glabrata; [23]): 1 µg/mL (≈ 2.92 µM) | MIC (C. glabrata; [24]): 2 µg/mL (≈ 5.84 µM) | MIC (C. glabrata; [25]): > 64 µg/mL | MIC (C. glabrata; [26]): > 64 µg/mL | MIC (C. glabrata; [27]): > 64 µg/mL | minimum inhibitory concentration (MIC) (C. glabrata; isolate 07-2964, 24 hours): 4 µg/mL (≈ 11.7 µM) | minimum inhibitory concentration (MIC) (C. glabrata; isolate 07-2965, 24 hours): 2 µg/mL (≈ 5.84 µM) | MIC (F. solani; [28]): > 64 µg/mL | MIC (F. solani; [29]): > 64 µg/mL | MIC (C. neoformans; [30]): 2 µg/mL (≈ 5.84 µM) | MIC (C. neoformans; [31]): 2 µg/mL (≈ 5.84 µM) | MIC (C. neoformans; [32]): 2 µg/mL (≈ 5.84 µM) | MIC (C. neoformans; [33]): 4 µg/mL (≈ 11.7 µM) | MIC (C. neoformans; [34]): 2 µg/mL (≈ 5.84 µM)
SMILES: O=C(CCCCCNC(=O)c1ccccc1S)Nc1ccccc1 [Compound 201, 2-mercapto-N-[5-(phenylcarbamoyl)pentyl]benzamide]
activity against the cell line U-87 (cell line U-87): most potent on an equimolar basis

MIC (A. fumigatus; 24 h, isolate 05-388, 24 hours): 2 µg/mL (≈ 5.15 µM) | MIC (A. fumigatus; [1]): 1 µg/mL (≈ 2.57 µM) | MIC (A. fumigatus; [2]): 1 µg/mL (≈ 2.57 µM) | MIC (A. fumigatus; 48 h, isolate 05-388, 48 hours): > 64 µg/mL | MIC (A. fumigatus; 48 h, isolate 06-4126, 48 hours): > 64 µg/mL | MIC (A. fumigatus; [3]): > 64 µg/mL | MIC (R. arrhizus; 24 h, isolate 07-1870, 24 hours): > 64 µg/mL | MIC (R. arrhizus; [4]): > 64 µg/mL | MIC (R. arrhizus; [5]): > 64 µg/mL | MIC (R. arrhizus; 48 h, isolate 07-1870, 48 hours): > 64 µg/mL | MIC (R. arrhizus; [6]): > 64 µg/mL | MIC (R. arrhizus; [7]): > 64 µg/mL | MIC (CP Control; 24 hours): 8 µg/mL (≈ 20.6 µM) | MIC (CP Control; 48 hours): > 64 µg/mL | MIC (T. rubrum; [8]): 1 µg/mL (≈ 2.57 µM) | MIC (T. rubrum; [9]): 1 µg/mL (≈ 2.57 µM) | MIC (T. rubrum; [10]): 1 µg/mL (≈ 2.57 µM) | MIC (T. rubrum; [11]): 1 µg/mL (≈ 2.57 µM) | MIC (S. apiospermum; [12]): 0.5 µg/mL (≈ 1.29 µM) | MIC (S. apiospermum; [13]): 2 µg/mL (≈ 5.15 µM) | MIC (S. apiospermum; 24 h, isolate 07-1601, 24 hours): < 0.125 µg/mL | MIC (S. apiospermum; [14]): 1 µg/mL (≈ 2.57 µM) | MIC (S. apiospermum; [15]): 2 µg/mL (≈ 5.15 µM) | MIC (S. apiospermum; 48 h, isolate 07-1601, 48 hours): 0.5 µg/mL (≈ 1.29 µM) | MIC (C. albicans; [16]): > 64 µg/mL | MIC (C. albicans; [17]): > 64 µg/mL | MIC (C. albicans; [18]): > 64 µg/mL | MIC (C. albicans; [19]): > 64 µg/mL | MIC (C. albicans; [20]): > 64 µg/mL | MIC (C. albicans; [21]): > 64 µg/mL | MIC (C. glabrata; [22]): > 64 µg/mL | MIC (C. glabrata; [23]): > 64 µg/mL | MIC (C. glabrata; [24]): > 64 µg/mL | MIC (C. glabrata; [25]): > 64 µg/mL | MIC (C. glabrata; [26]): > 64 µg/mL | MIC (C. glabrata; [27]): > 64 µg/mL | MIC (F. solani; 24 h, isolate 07-1399, 24 hours): > 64 µg/mL | MIC (F. solani; 24 h, isolate 07-1755, 24 hours): > 64 µg/mL | MIC (F. solani; 24 h, isolate 07-1867, 24 hours): > 64 µg/mL | MIC (F. solani; 48 h, isolate 07-1399, 48 hours): > 64 µg/mL | MIC (F. solani; [28]): > 64 µg/mL | MIC (F. solani; [29]): > 64 µg/mL | MIC (C. neoformans; [30]): 4 µg/mL (≈ 10.3 µM) | MIC (C. neoformans; [31]): > 64 µg/mL | MIC (C. neoformans; [32]): > 64 µg/mL | MIC (C. neoformans; 48 h, isolate 07-2665, 48 hours): 4 µg/mL (≈ 10.3 µM) | MIC (C. neoformans; [33]): > 64 µg/mL | MIC (C. neoformans; [34]): > 64 µg/mL
SMILES: O=C(NCCCCCCNC(=O)c1ccccc1S)c1ccccc1S [Compound 204, Bis-1,6-(2-mercaptobenzoylamino)hexane]
